The text below walks through data of patent US9732119B2, “Immunomodulators” (BRISTOL-MYERS SQUIBB COMPANY, priority 2014, dated 2017).

The assay deals with T1, PD-1-Ig binding to PD-L1-TVMV-His (PD-L1-His) (Homo sapiens, UniProt Q9NZQ7).
T1 construct: hPDL1(19-239)-TVMV-His; made in house; host or cells: HEK293T cells
Description: PD-1/PD-L1 Homogenous Time-Resolved Fluorescence (HTRF) binding assay. Particulars: PD-1-Ig (20 nM) / PD-L1-His (10 nM). In a few lines:
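HTRF competition: compound pre-incubated 15 min with PD-L1-His (10 nM final), then PD-1-Ig (20 nM final) added for 15 min in dPBS, 0.1% BSA, 0.05% Tween-20. Detection with Eu-cryptate anti-Ig (1 nM) and APC anti-His (20 nM) antibodies.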
(In general: TR-FRET usually uses a lanthanide donor and a delayed reading to cut background.)

T1 sequence (Q9NZQ7 with tags, fused parts or gaps): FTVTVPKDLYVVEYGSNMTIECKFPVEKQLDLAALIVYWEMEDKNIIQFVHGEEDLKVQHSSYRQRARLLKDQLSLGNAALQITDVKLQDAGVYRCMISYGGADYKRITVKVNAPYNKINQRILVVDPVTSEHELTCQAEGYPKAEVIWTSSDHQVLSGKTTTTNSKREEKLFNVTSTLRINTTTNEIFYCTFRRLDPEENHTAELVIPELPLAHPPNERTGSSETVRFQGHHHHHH

Take `CCCC[C@H]1C(=O)N(C)[C@@H](CCCC)C(=O)N[C@@H](CCC(=O)O)C(=O)N[C@H](C(N)=O)CNCC(=O)N[C@@H](Cc2ccc(O)cc2)C(=O)N2CCCC[C@H]2C(=O)N[C@@H](CC(N)=O)C(=O)N2CCC[C@H]2C(=O)N[C@@H](CCC(N)=O)C(=O)N[C@@H](CCC(N)=O)C(=O)N2C[C@H](O)C[C@H]2C(=O)N[C@@H](Cc2c[nH]c3ccccc23)C(=O)N[C@@H](CC(N)=O)C(=O)N[C@@H](Cc2cn(CC(=O)O)c3ccccc23)C(=O)N1C` [Example 9045]: the half-inhibitory concentration (IC50) (range classes) is 1 to 9.9 nM.

`CCCC[C@H]1C(=O)N(C)[C@@H](CCCC)C(=O)N[C@@H](CCC(=O)O)C(=O)N[C@H](C(N)=O)CNCC(=O)N[C@@H](Cc2ccc(F)cc2)C(=O)N2CCCC[C@H]2C(=O)N[C@@H](CC(N)=O)C(=O)N2CCC[C@H]2C(=O)N[C@@H](CCC(N)=O)C(=O)N[C@@H](CC(C)C)C(=O)N2C[C@H](O)C[C@H]2C(=O)N[C@@H](Cc2c[nH]c3ccccc23)C(=O)N[C@@H](CC(N)=O)C(=O)N[C@@H](Cc2cn(CC(=O)O)c3ccccc23)C(=O)N1C` [Example 9046]: for the setting “range classes”, the IC50 was in the range of 1 to 9.9 nM. On to `CCCC[C@H]1C(=O)N(C)[C@@H](CCCC)C(=O)N[C@@H](CCC(=O)O)C(=O)N[C@H](C(N)=O)CNCC(=O)N[C@@H](Cc2ccc(F)cc2)C(=O)N2CCCC[C@H]2C(=O)N[C@@H](CC(N)=O)C(=O)N2CCC[C@H]2C(=O)N[C@@H](CCC(N)=O)C(=O)N[C@@H](CCC(=O)O)C(=O)N2C[C@H](O)C[C@H]2C(=O)N[C@@H](Cc2c[nH]c3ccccc23)C(=O)N[C@@H](CC(N)=O)C(=O)N[C@@H](Cc2cn(CC(=O)O)c3ccccc23)C(=O)N1C` [Example 9047], for which, for the setting “range classes”, the IC50 lay in the range of 1 to 9.9 nM. In the case of `CCCC[C@H]1C(=O)N(C)[C@@H](CCCC)C(=O)N[C@@H](CCC(=O)O)C(=O)N[C@H](C(N)=O)CNCC(=O)N[C@@H](Cc2ccc(F)cc2)C(=O)N2CCCC[C@H]2C(=O)N[C@@H](CC(N)=O)C(=O)N2CCC[C@H]2C(=O)N[C@@H](CCC(N)=O)C(=O)N[C@@H](CCC(N)=O)C(=O)N2C[C@H](O)C[C@H]2C(=O)N[C@@H](Cc2c[nH]c3ccccc23)C(=O)N[C@@H](CC(N)=O)C(=O)N[C@@H](Cc2cn(CC(=O)O)c3ccccc23)C(=O)N1C` [Example 9048], under “range classes”, the IC50 was 1 to 9.9 nM. Compound `CCCC[C@H]1C(=O)N(C)[C@@H](CCCC)C(=O)N[C@@H](CC(C)C)C(=O)N[C@H](C(N)=O)CNCC(=O)N[C@@H](Cc2ccc(O)cc2)C(=O)N2CCCC[C@H]2C(=O)N[C@@H](CC(N)=O)C(=O)N2CCC[C@H]2C(=O)N[C@@H](Cc2c[nH]cn2)C(=O)N[C@@H](CC(=O)O)C(=O)N2C[C@H](O)C[C@H]2C(=O)N[C@@H](Cc2c[nH]c3ccccc23)C(=O)N[C@@H](C)C(=O)N[C@@H](Cc2cn(CC(=O)O)c3ccccc23)C(=O)N1C` [Example 9049] had an IC50 (range classes) of 1 to 9.9 nM.

Take `CCCC[C@H]1C(=O)N(C)[C@@H](CCCC)C(=O)N[C@@H](CC(C)C)C(=O)N[C@H](C(N)=O)CNCC(=O)N[C@@H](Cc2ccc(O)cc2)C(=O)N2CCCC[C@H]2C(=O)N[C@@H](CC(N)=O)C(=O)N2CCC[C@H]2C(=O)N[C@@H](Cc2c[nH]cn2)C(=O)N[C@@H](CCC(=O)O)C(=O)N2C[C@H](O)C[C@H]2C(=O)N[C@@H](Cc2c[nH]c3ccccc23)C(=O)N[C@@H](C)C(=O)N[C@@H](Cc2cn(CC(=O)O)c3ccccc23)C(=O)N1C` [Example 9050]: the IC50 (range classes) was 1 to 9.9 nM. For the compound `CCCC[C@H]1C(=O)N(C)[C@@H](CCCC)C(=O)N[C@@H](CC(C)C)C(=O)N[C@H](C(N)=O)CNCC(=O)N[C@@H](Cc2ccc(O)cc2)C(=O)N2CCCC[C@H]2C(=O)N[C@@H](CC(N)=O)C(=O)N2CCC[C@H]2C(=O)N[C@@H](Cc2c[nH]cn2)C(=O)N[C@@H](CCC(N)=O)C(=O)N2C[C@H](O)C[C@H]2C(=O)N[C@@H](Cc2c[nH]c3ccccc23)C(=O)N[C@@H](C)C(=O)N[C@@H](Cc2cn(CC(=O)O)c3ccccc23)C(=O)N1C` [Example 9051], the IC50 (range classes) was in the range of 1 to 9.9 nM. Consider `CCCC[C@H]1C(=O)N(C)[C@@H](CCCC)C(=O)N[C@@H](CC(C)C)C(=O)N[C@H](C(N)=O)CNCC(=O)N[C@@H](Cc2ccc(F)cc2)C(=O)N2CCCC[C@H]2C(=O)N[C@@H](CC(N)=O)C(=O)N2CCC[C@H]2C(=O)N[C@@H](Cc2c[nH]cn2)C(=O)N[C@@H](CCC(=O)O)C(=O)N2C[C@H](O)C[C@H]2C(=O)N[C@@H](Cc2c[nH]c3ccccc23)C(=O)N[C@@H](C)C(=O)N[C@@H](Cc2cn(CC(=O)O)c3ccccc23)C(=O)N1C` [Example 9052], for which the IC50 (numeric values) was 10 nM. As to `CCCC[C@H]1C(=O)N(C)[C@@H](CCCC)C(=O)N[C@@H](CC(C)C)C(=O)N[C@H](C(N)=O)CNCC(=O)N[C@@H](Cc2ccc(F)cc2)C(=O)N2CCCC[C@H]2C(=O)N[C@@H](CC(N)=O)C(=O)N2CCCC2C(=O)N[C@@H](Cc2c[nH]cn2)C(=O)N[C@@H](CCC(N)=O)C(=O)N2C[C@H](O)C[C@H]2C(=O)N[C@@H](Cc2c[nH]c3ccccc23)C(=O)N[C@@H](C)C(=O)N[C@@H](Cc2cn(CC(=O)O)c3ccccc23)C(=O)N1C` (stereo partly drawn) [Example 9053], the IC50 (range classes) fell in the range of 1 to 9.9 nM.

In turn, `CCCC[C@H]1C(=O)N(C)[C@@H](CCCC)C(=O)N[C@@H](CCC(=O)O)C(=O)N[C@H](C(N)=O)CNCC(=O)N[C@@H](Cc2ccc(O)cc2)C(=O)N2CCCC[C@H]2C(=O)N[C@@H](CC(N)=O)C(=O)N2CCC[C@H]2C(=O)N[C@@H](Cc2c[nH]cn2)C(=O)N[C@@H](CC(=O)O)C(=O)N2C[C@H](O)C[C@H]2C(=O)N[C@@H](Cc2c[nH]c3ccccc23)C(=O)N[C@@H](C)C(=O)N[C@@H](Cc2cn(CC(=O)O)c3ccccc23)C(=O)N1C` [Example 9054] returned an IC50 (range classes) of 1 to 9.9 nM. Same read-out and setting: the value for `CCCC[C@H]1C(=O)N(C)[C@@H](CCCC)C(=O)N[C@@H](CCC(=O)O)C(=O)N[C@H](C(N)=O)CNCC(=O)N[C@@H](Cc2ccc(O)cc2)C(=O)N2CCCC[C@H]2C(=O)N[C@@H](CC(N)=O)C(=O)N2CCC[C@H]2C(=O)N[C@@H](Cc2c[nH]cn2)C(=O)N[C@@H](CCC(=O)O)C(=O)N2C[C@H](O)C[C@H]2C(=O)N[C@@H](Cc2c[nH]c3ccccc23)C(=O)N[C@@H](C)C(=O)N[C@@H](Cc2cn(CC(=O)O)c3ccccc23)C(=O)N1C` [Example 9055] was 1 to 9.9 nM; that for `CCCC[C@H]1C(=O)N(C)[C@@H](CCCC)C(=O)N[C@@H](CCC(=O)O)C(=O)N[C@H](C(N)=O)CNCC(=O)N[C@@H](Cc2ccc(O)cc2)C(=O)N2CCCC[C@H]2C(=O)N[C@@H](CC(N)=O)C(=O)N2CCC[C@H]2C(=O)N[C@@H](Cc2c[nH]cn2)C(=O)N[C@@H](CCC(N)=O)C(=O)N2C[C@H](O)C[C@H]2C(=O)N[C@@H](Cc2c[nH]c3ccccc23)C(=O)N[C@@H](C)C(=O)N[C@@H](Cc2cn(CC(=O)O)c3ccccc23)C(=O)N1C` [Example 9056] was 1 to 9.9 nM; that for `CCCC[C@H]1C(=O)N(C)[C@@H](CCCC)C(=O)N[C@@H](CCC(=O)O)C(=O)N[C@H](C(N)=O)CNCC(=O)N[C@@H](Cc2ccc(F)cc2)C(=O)N2CCCC[C@H]2C(=O)N[C@@H](CC(N)=O)C(=O)N2CCC[C@H]2C(=O)N[C@@H](Cc2c[nH]cn2)C(=O)N[C@@H](CC(=O)O)C(=O)N2C[C@H](O)C[C@H]2C(=O)N[C@@H](Cc2c[nH]c3ccccc23)C(=O)N[C@@H](C)C(=O)N[C@@H](Cc2cn(CC(=O)O)c3ccccc23)C(=O)N1C` [Example 9057] was 1 to 9.9 nM.

Take `CCCC[C@H]1C(=O)N(C)[C@@H](CCCC)C(=O)N[C@@H](CCC(=O)O)C(=O)N[C@H](C(N)=O)CNCC(=O)N[C@@H](Cc2ccc(F)cc2)C(=O)N2CCCC[C@H]2C(=O)N[C@@H](CC(N)=O)C(=O)N2CCC[C@H]2C(=O)N[C@@H](Cc2c[nH]cn2)C(=O)N[C@@H](CCC(=O)O)C(=O)N2C[C@H](O)C[C@H]2C(=O)N[C@@H](Cc2c[nH]c3ccccc23)C(=O)N[C@@H](C)C(=O)N[C@@H](Cc2cn(CC(=O)O)c3ccccc23)C(=O)N1C` [Example 9058]: the IC50 (range classes) lay in the range of 1 to 9.9 nM. In turn, `CCCC[C@H]1C(=O)N(C)[C@@H](CCCC)C(=O)N[C@@H](CCC(=O)O)C(=O)N[C@H](C(N)=O)CNCC(=O)N[C@@H](Cc2ccc(F)cc2)C(=O)N2CCCC[C@H]2C(=O)N[C@@H](CC(N)=O)C(=O)N2CCC[C@H]2C(=O)N[C@@H](Cc2c[nH]cn2)C(=O)N[C@@H](CCC(N)=O)C(=O)N2C[C@H](O)C[C@H]2C(=O)N[C@@H](Cc2c[nH]c3ccccc23)C(=O)N[C@@H](C)C(=O)N[C@@H](Cc2cn(CC(=O)O)c3ccccc23)C(=O)N1C` [Example 9059] yielded an IC50 (range classes) of 1 to 9.9 nM. `CCCC[C@H]1C(=O)N(C)[C@@H](CCCC)C(=O)NC(CC(C)C)C(=O)N[C@H](C(=O)NCC(N)=O)CNCC(=O)N[C@@H](Cc2ccc(O)cc2)C(=O)N(C)[C@@H](C)C(=O)N[C@@H](CC(N)=O)C(=O)N2CCC[C@H]2C(=O)N[C@@H](CC(N)=O)C(=O)N[C@@H](CC(C)C)C(=O)N2C[C@H](O)C[C@H]2C(=O)N[C@@H](Cc2c[nH]c3ccccc23)C(=O)N[C@@H](CC(N)=O)C(=O)N[C@@H](Cc2c[nH]c3ccccc23)C(=O)N1C` (stereo partly drawn) [Example 10001] showed an IC50 (range classes) of 1 to 9.9 nM. For the compound `CCCC[C@H]1C(=O)N(C)[C@@H](CCCC)C(=O)NC(CC(C)C)C(=O)N[C@H](C(=O)NCC(N)=O)CNCC(=O)N[C@@H](Cc2ccc(O)cc2)C(=O)N(C)[C@@H](C)C(=O)N[C@@H](CC(N)=O)C(=O)N2CCC[C@H]2C(=O)N[C@@H](CC(N)=O)C(=O)N[C@@H](CC(C)C)C(=O)N2CCC[C@H]2C(=O)N[C@@H](Cc2c[nH]c3ccccc23)C(=O)N[C@@H](CC(N)=O)C(=O)N[C@@H](Cc2c[nH]c3ccccc23)C(=O)N1C` (stereo partly drawn) [Example 10002], the IC50 (range classes) was in the range of 10 to 99 nM. On the same count and under the same terms, the result for `CCCC[C@H]1C(=O)N(C)[C@@H](CCCC)C(=O)NC(CC(C)C)C(=O)N[C@H](C(=O)NCC(N)=O)CNCC(=O)N[C@@H](Cc2ccc(O)cc2)C(=O)N(C)[C@@H](C)C(=O)N[C@@H](CC(N)=O)C(=O)N2CCC[C@H]2C(=O)N[C@@H](Cc2cnc[nH]2)C(=O)N[C@@H](CC(C)C)C(=O)N2CCC[C@H]2C(=O)N[C@@H](Cc2c[nH]c3ccccc23)C(=O)N[C@@H](CC(N)=O)C(=O)N[C@@H](Cc2c[nH]c3ccccc23)C(=O)N1C` (stereo partly drawn) [Example 10003] reads 1 to 9.9 nM.

One may read the IC50 as the midpoint of a concentration-inhibition curve. Read a low IC50 as inhibition by little substance.
